# Experimental data reported in US10316371B2, “Screening methods for identifying specific Staphylococcus aureus inhibitors” (TRANA DISCOVERY, INC., priority 2011, dated 2019).
# Like-named read-outs stand apart in the source and are kept apart here.
# How the values were obtained:
# [1] = system: S. aureus specific Arg ASL (anticodon stem loop) RNA oligomer interaction with programmed ribosomes; test: Fluorescence polarization assay of Arg ASL / programmed ribosome complex (HTS and dose response); format: binding, S. aureus Arg ASL; E. coli 70S ribosomes; settings: 6 pt dose response, fluorescence polarization after 4 hours at 25° C., corrected for auto-fluorescence
# Description: The assay requires the following materials: • Ribosomes—isolated from E. coli or S. aureus • fMet tRNA (Sigma or Chemical Block, Moscow) • mRNA (including the S-D sequence, the “box” sequence, the codon for methionine, and the codon for arginine that is specific for S. aureus, AGA, optionally with additional base pairs to the left of the S-D sequence and/or to the right of the codon for arginine) • Fluorescently labeled Arg ASL oliogomer • Buffer—HAM20,β • 384 well high binding micro titer plates (Matrix Technologies #4319, sold by Fischer Scientific as cat #50823855), or other appropriate plates for use in high throughput screening • Filtration (Sartorius Stedium 100 Kdalton VC 1042) or centrifugation for complex purification • EDTA—negative control (binding antagonist) • Neomycin—A-site binding enhancer (binding agonist)
# A ribosome complex was prepared using the above materials and then purified prior to use in the assay. The prepared complex can be stored in concentrated form at −80° C. The complexes were diluted in buffer and dispensed onto plates. […] Fluorescence polarization was measured at approximately 4 hours after dispensing onto the micro-titer plates.
# ASL^Arg was first heated for 2 min at 90° C. in water, after addition of 1/10 V of 10× buffer incubation continued on ice for at least 10 min. Prior to complex formation 70S ribosomes and tRNA were reactivated in buffer for 5 min at 45° C. followed by 10 min at 37° C.; mRNA was heated in buffer at 37° C. for 5 min. • (1000 μl×(2 μM E. coli 70S ribosomes+10 μM mRNA-Arg+4 μM tRNA^fmet)/HAM20,β→30 min @ 37° C.,+1000 μl×(0.2 μM neomycin+[…]))→20 min @ 37° C., overnight on ice • Final complex: (2000 pm P+2000 pm ASL)/2 ml=1 μM P+1 μM ASL HAM20,β:
# Preparation of Complexes: The purified complex was diluted in ice cold HAM20,β such that the total fluorescence was approximately 2,000,000 units per 5 μL.
# 20 μl of the diluted complex was added to all 384 well plates (except for blank wells, which received 20 μL of HAM20 only, without complex) using Multidrop dispenser after which the plates were incubated at 25° C. for 4 hours (target 4.5 hours for middle of batch). Plates were then analyzed for fluorescence polarization in Analyst HT fluorescence plate reader and the following instrument settings:
# The parallel and perpendicular fluorescence values of experimental wells were automatically corrected for the corresponding values obtained from the blank wells. The fluorescence polarization was calculated as following: P=(I−Ip)/(I+Ip), wherein Ip—is perpendicular fluorescence and I—is parallel fluorescence.
# The percent of effect of experimental compounds was calculated as following: %-Inh=(P0−Pc)/(P0−P100)*100, wherein P0—is average polarization in 0%—inhibition control wells, P100—is average polarization in 100%—inhibition control wells, and Pc—is polarization in compound well.
# The 3 sigma HTS hits were cherry picked and retested in 6 pt dose response format, using 3× serial dilution and the top nominal concentration of 100 uM.
# The compounds were serially diluted in 10% DMSO and plated into 384 well plates (in a volume of 5 μL) to achieve the nominal final concentration raging from 100 μM to 0.4 μM. The plates received 20 μl of the diluted complex following incubation at 25° C. for 4 hours. Plates were then analyzed for fluorescence polarization as described above (see HTS section).
# In parallel, the compounds were tested for auto-fluorescence. To this end, the compounds were plated (using the same dilution protocol) into 384 well plates. The plates received 20 μL of the HAM20 assay buffer only (without complex). The plates were incubated for 4 hrs and then were analyzed for fluorescence polarization as described above.
# [2] = system: SA 158 (Staphylococcus aureus 158); test: MIC; format: cell-based
# Description: (§1) The strains included Staphylococcus aureus, Methicillin Resistant (ATCC 33591), Methicillin-Resistant Staphylococcus aureus USA300, Staphylococcus aureus 158, Staphylococcus aureus 22, Staphylococcus aureus 2, Staphylococcus aureus (ATCC 29213), and Staphylococcus aureus 182.
# (§2) A series of compounds were evaluated for their activity against drug resistant S. aureus, including MSSA and MRSA strains.
# [3] = system: SA 182 (Staphylococcus aureus 182); test: MIC; format: cell-based
# Description: as §1, §2
# [4] = system: SA 2 (Staphylococcus aureus 2); test: MIC; format: cell-based
# Description: as §1, §2
# [5] = system: SA 22 (Staphylococcus aureus 22); test: MIC; format: cell-based
# Description: as §1, §2
# [6] = system: SA 29213 (Staphylococcus aureus (ATCC 29213)); test: MIC; format: cell-based
# Description: as §1, §2
# [7] = system: SA 33591 (Staphylococcus aureus, Methicillin Resistant (ATCC 33591)); test: MIC; format: cell-based
# Description: as §1, §2
# [8] = system: SA USA 300 (Methicillin-Resistant Staphylococcus aureus USA300); test: MIC; format: cell-based
# Description: as §1, §2
# E. faecalis 161651 = test: MIC; format: cell-based; settings: Enterococcus faecalis
# Description: (§3) The compounds were re-tested against other bacteria, including Staphylococcus epidermidis (ATCC 35984), Staphylococcus epidermidis (MRSE), E. faecium 134529, E. faecium 145494, […], E. faecium 161651, S. pneumoniae 49619, and S. pneumoniae 149389.
# as §2
# E. faecalis 29212 = test: MIC; format: cell-based; settings: Enterococcus faecalis
# Description: as §3, §2
# E. faecium 134529 = test: MIC; format: cell-based; settings: Enterococcus faecium
# Description: as §3, §2
# E. faecium 145494 = test: MIC; format: cell-based; settings: Enterococcus faecium
# Description: as §3, §2
# S. epidermidis 35984 = test: MIC; format: cell-based; settings: Staphylococcus epidermidis
# Description: as §3, §2
# S. epidermidis MRSE 01 = test: MIC; format: cell-based; settings: Staphylococcus epidermidis
# Description: as §3, §2
# S. pneumoniae 149389 = test: MIC; format: cell-based; settings: Streptococcus pneumoniae
# Description: as §3, §2
# S. pneumoniae 49619 = test: MIC; format: cell-based; settings: Streptococcus pneumoniae
# Description: as §3, §2
# E. coli 25922 = test: MIC; format: cell-based; settings: Escherichia coli
# E. coli ESBL 4 = test: MIC; format: cell-based; settings: Escherichia coli, ESBL4
# K. pneumoniae 700603 = test: MIC; format: cell-based; settings: Klebsiella pneumoniae
# K. pneumoniae UMM = test: MIC; format: cell-based; settings: Klebsiella pneumoniae
# Mammalian Cell Toxicity [9] = format: cell-based; settings: human, MRC5 cells
# Mammalian Cell Toxicity [10] = format: cell-based; settings: mouse, 3T3 cells
# [11] = ATCC29213, SA 29213, read-out: MIC
# [12] = ATCC33591, SA 33591, read-out: MIC
# [13] = E. faecalis 161651, read-out: MIC
# [14] = E. faecalis 29212, read-out: MIC
# [15] = E. faecium 134529, read-out: MIC
# [16] = E. faecium 145494, read-out: MIC
# [17] = S. epidermidis 35984, read-out: MIC
# [18] = S. epidermidis MRSE 01, read-out: MIC
# [19] = S. pneumoniae 149389, read-out: MIC
# [20] = S. pneumoniae 49619, read-out: MIC
# [21] = K. pneumoniae 700603, read-out: MIC
# [22] = K. pneumoniae UMM, read-out: MIC
"MIC ([2]; SA 158, read-out: MIC)","MIC ([3]; SA 182, read-out: MIC)","MIC ([4]; SA 2, read-out: MIC)","MIC ([5]; SA 22, read-out: MIC)","MIC [6, 11]","MIC [7, 12]","MIC ([8]; SA USA 300, read-out: MIC)",MIC (E. faecalis 161651; [13]),MIC (E. faecalis 29212; [14]),MIC (E. faecium 134529; [15]),MIC (E. faecium 145494; [16]),MIC (S. epidermidis 35984; [17]),MIC (S. epidermidis MRSE 01; [18]),MIC (S. pneumoniae 149389; [19]),MIC (S. pneumoniae 49619; [20]),"MIC (E. coli 25922; E. coli 25922, read-out: MIC)","MIC (E. coli ESBL 4; E. coli ESBL 4, read-out: MIC)",SMILES,IC50 [1],CC50 (Mammalian Cell Toxicity [9]),CC50 (Mammalian Cell Toxicity [10]),other results
128 mg/L,128 mg/L,128 mg/L,128 mg/L,128 mg/L,> 128 mg/L,128 mg/L,128 mg/L,128 mg/L,> 128 mg/L,> 128 mg/L,> 128 mg/L,> 128 mg/L,128 mg/L,32 mg/L,> 128 mg/L,> 128 mg/L,"COc1ccc2c(c1)c(=O)oc1c(C)c(OC(C(=O)O)c3ccccc3)ccc12 (stereo not drawn) [Compound #211, [(8-methoxy-4-methyl-6-oxo-6H-benzo[c]chromen-3-yl)oxy](phenyl)acetic acid]",agonist,26 mg/L,28 mg/L,MIC (K. pneumoniae 700603; [21]): > 128 mg/L; MIC (K. pneumoniae UMM; [22]): > 128 mg/L
128 mg/L,128 mg/L,32 mg/L,32 mg/L,64 mg/L,128 mg/L,128 mg/L,128 mg/L,128 mg/L,64 mg/L,> 128 mg/L,128 mg/L,64 mg/L,> 128 mg/L,> 128 mg/L,> 128 mg/L,> 128 mg/L,"CCN1C(=O)C2Cc3c([nH]c4ccccc34)CN2C1=S (stereo not drawn) [Compound #740, 2-ethyl-3-thioxo-2,3,5,6,11,11a-hexahydro-1H-imidazo[1′,5′:1,6]pyrido[3,4-b]indol-1-one]",,62 mg/L,20 to 64 mg/L,IC50 ([1]; read-out: IC50): 44.2 µM; MIC (K. pneumoniae 700603; [21]): > 128 mg/L; MIC (K. pneumoniae UMM; [22]): > 128 mg/L
,,,,,,,,,,,,,,,,,"CC[n+]1c(C=CC=CN(C(C)=O)c2ccccc2)sc2ccccc21.[I-] [Compound #928, 2-{4-[acetyl(phenyl)amino]-1,3-butadien-1-yl}-3-ethyl-1,3-benzothiazol-3-ium iodide]",agonist,20 to 64 mg/L,20 to 64 mg/L,MIC [2]: 128 mg/L; MIC [3]: > 128 mg/L; MIC [4]: 128 mg/L; MIC [5]: 64 mg/L; MIC ([6]; ATCC29213): 64 mg/L; MIC ([7]; ATCC33591): 128 mg/L; MIC [8]: 64 mg/L; MIC (E. faecalis 161651; 161651): 128 mg/L; MIC (E. faecalis 29212; 29212): 128 mg/L; MIC (E. faecium 134529; 134529): 128 mg/L; MIC (E. faecium 145494; 145494): 128 mg/L; MIC (S. epidermidis 35984; 35984): 128 mg/L; MIC (S. epidermidis MRSE 01; MRSE): 64 mg/L; MIC (S. pneumoniae 149389; 149389): > 128 mg/L; MIC (S. pneumoniae 49619; 49619): > 128 mg/L; MIC (E. coli 25922; 25922): > 128 mg/L; MIC (E. coli ESBL 4): > 128 mg/L; MIC (K. pneumoniae 700603; 700603): > 128 mg/L; MIC (K. pneumoniae UMM): > 128 mg/L
